Patent EP4656642A1, “ESTROGEN RECEPTOR PROTEOLYSIS TARGETING CHIMERA COMPOUND AND USE THEREOF” (GAN & LEE PHARM CO., LTD, priority 2023, dated 2024)
Several values for one entry are separate records, joined by “and”; a condition that tells them apart may be missing. Equal values may be shown once.

Columns and labels:
Format in all cases: cell-based
ERα [1] = biological target: T1, ERα (Homo sapiens, UniProt P03372); test: Degradation of ERα in MCF-7 cells (immunoblotting, 4 h)
T1 sequence (P03372 1-595): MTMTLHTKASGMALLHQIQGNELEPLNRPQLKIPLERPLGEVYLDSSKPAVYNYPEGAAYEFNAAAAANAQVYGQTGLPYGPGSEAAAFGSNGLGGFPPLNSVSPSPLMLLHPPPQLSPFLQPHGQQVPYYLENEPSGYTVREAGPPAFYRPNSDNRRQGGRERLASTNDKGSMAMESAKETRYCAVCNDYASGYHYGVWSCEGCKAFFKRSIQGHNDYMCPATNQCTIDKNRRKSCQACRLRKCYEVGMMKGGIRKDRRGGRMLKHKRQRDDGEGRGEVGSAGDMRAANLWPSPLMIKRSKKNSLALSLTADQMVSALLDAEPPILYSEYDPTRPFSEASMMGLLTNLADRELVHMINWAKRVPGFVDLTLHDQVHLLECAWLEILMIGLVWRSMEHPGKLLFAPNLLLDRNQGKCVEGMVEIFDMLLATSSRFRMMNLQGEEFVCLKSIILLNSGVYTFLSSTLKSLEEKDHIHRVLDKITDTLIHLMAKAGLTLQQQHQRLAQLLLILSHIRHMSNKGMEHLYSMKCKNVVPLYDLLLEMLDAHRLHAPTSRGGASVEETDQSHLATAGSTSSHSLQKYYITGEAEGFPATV
Outline: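 Degradation rate reflects ERα band intensity, corrected to an internal reference protein, relative to control. Values come from Western blotting of lysates from MCF-7 cells exposed 4 h at 37°C to compounds at final concentrations of 0.15-1000nM.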

MCF-7 cells = test: Inhibition of cell proliferation of MCF-7 cells (CCK-8, 9 days)
Outline: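 Read-out was CCK-8 viability after 9-day continuous exposure (37°C, 5% CO2) of MCF-7 cells plated at 800/well in 10% FBS DMEM across several compound concentrations. Values are proliferation IC50s.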

ERα [2] = biological target: T1, ERα; test: Degradation of ERα in T-47D cells (immunoblotting, 4 h); design: host or cells: T-47D
Outline: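 ERα protein levels were assessed by immunoblot of RIPA lysates (with protease inhibitor) after 4 h exposure at 37°C. Compound was added in DMSO to T-47D cells at final concentrations of 0.15-1000 nM.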

T-47D cells = test: Inhibition of cell proliferation in T-47D cells (CCK-8, 6 days); conditions: 6 days of treatment
From the text: Test Example 2: Inhibitory effect of the PROTAC compounds provided in the present disclosure on cell proliferation in T-47D cells (source ATCC)
The complete medium required for T-47D cells was 1640 ( ATCC, Product number: A10491-01) basal medium containing 10% fetal bovine serum. T-47D cells were inoculated in 96-well plates at a density of 3,000 cells/well, and different concentrations of the PROTAC compounds 1-55 provided in the examples of the present disclosure and a positive control sample ARV-471 (source: Innochem) were prepared to treat cells, and the cells were treated at 37°C in a cell culture incubator with 5% CO2 for 6 days. Cell viability was detected using a CCK-8 kit (Beyotime, Product number: C0040) according to the manufacturer's instructions. […] Table 2 IC50 values for inhibition of the proliferation of T-47D cells by the PROTAC compounds provided by the present disclosure and the positive control sample

[3] = 9 days of treatment, CCK-8, Table 5
[4] = treated for 9 days, CCK-8 kit (Table 6)

| Structure (SMILES) | Degradation rate (%) of ERα in MCF-7 cells (ERα [1]; 10nM compound) | IC50 (MCF-7 cells; [3]) | Degradation rate (%) of ERα in T-47D cells (ERα [2]; 10nM compound) | IC50 (T-47D cells; Table 2) | Degradation rate (%) of ERα in MCF-7 cells (ERα [1]; 1nM compound) | Degradation rate (%) of ERα in T-47D cells (ERα [2]; 1nM compound) | IC50 (MCF-7 cells; [4]) | IC50 (T-47D cells; Table 3) |
| --- | --- | --- | --- | --- | --- | --- | --- | --- |
| O=C1CCC(N2C(=O)c3cc4c(cc3C2=O)C2(CCN(C3CCC5(CC3)CCN(c3ccc(C6c7ccc(O)cc7CCC6c6ccccc6)cc3)CC5)CC2)CO4)C(=O)N1 (stereo not drawn) [A18] | 20% | 170 nM | 14% | 68 nM |  |  |  |  |
| O=C1CCC(N2Cc3cc4c(cc3C2=O)OC2(CC4)CCN(C3CCC4(CC3)CN(c3ccc(C5c6ccc(O)cc6CCC5c5ccccc5)cc3)C4)CC2)C(=O)N1 (stereo not drawn) [A23] | 14% | 10 nM | 53% | 9 nM |  |  |  |  |
| O=C1CCC(N2Cc3cc4c(cc3C2=O)CCC2(CN(C3CCC5(CC3)CCN(c3ccc([C@@H]6c7ccc(O)cc7CC[C@@H]6c6ccccc6)cc3)CC5)C2)O4)C(=O)N1 (stereo partly drawn) [A33] | 26% | 30 nM | 56% | 9.2 nM | -7% | 12% |  |  |
| O=C1CCC(N2C(=O)c3cc4c(cc3C2=O)C2(CCN(C3CC5(CCN(c6ccc([C@@H]7c8ccc(O)cc8CC[C@@H]7c7ccccc7)cc6)CC5)C3)CC2)CO4)C(=O)N1 (stereo partly drawn) [A34] | 13% |  | 28% |  | 4% | 5% | 174 nM | 68 nM |
| O=C1CCC(N2C(=O)c3cc4c(cc3C2=O)C2(CCN(CC3CCC5(CC3)CCN(c3ccc([C@@H]6c7ccc(O)cc7CC[C@@H]6c6ccccc6)cc3)CC5)CC2)CO4)C(=O)N1 (stereo partly drawn) [A36] | -14% |  | -23% |  | 11% | 2% | 270 nM | 21 nM |
| O=C1CCC(N2Cc3cc4c(cc3C2=O)OC2(CC4)CN(CC3CCC4(CC3)CCN(c3ccc([C@@H]5c6ccc(O)cc6CC[C@@H]5c5ccccc5)cc3)CC4)C2)C(=O)N1 (stereo partly drawn) [A37] | 8% |  | 35% |  | -12% | 15% | 37 nM | 7 nM |
| O=C1CCC(N2Cc3cc4c(cc3C2=O)OCC2(CCN(CC3CCC5(CC3)CCN(c3ccc([C@@H]6c7ccc(O)cc7CC[C@@H]6c6ccccc6)cc3)CC5)CC2)O4)C(=O)N1 (stereo partly drawn) [A39] | -27% |  | 6% |  | -16% | 11% | 30 nM | 41 nM |
| O=C1CCC(N2Cc3cc4c(cc3C2=O)OC2(CC4)CCN(CC3CCC4(CC3)CCN(c3ccc([C@@H]5c6ccc(O)cc6CC[C@@H]5c5ccccc5)cc3)CC4)CC2)C(=O)N1 (stereo partly drawn) [A40] | 35% |  | 25% |  | 15% | 6% | 76 nM | 13 nM |
| O=C1CCC(N2C(=O)c3cc4c(cc3C2=O)OC2(CC4)CN(CC3CCC4(CC3)CCN(c3ccc([C@@H]5c6ccc(O)cc6CC[C@@H]5c5ccccc5)cc3)CC4)C2)C(=O)N1 (stereo partly drawn) [A41] | -18% |  | 17% |  | -9% | 8% | 33 nM | 23 nM |
| O=C1CCC(N2C(=O)c3cc4c(cc3C2=O)OCC2(CCN(CC3CCC5(CC3)CCN(c3ccc([C@@H]6c7ccc(O)cc7CC[C@@H]6c6ccccc6)cc3)CC5)CC2)C4)C(=O)N1 (stereo partly drawn) [A42] | -36% |  | 30% |  | -49% | 41% | 38 nM | 60 nM |
| O=C1CCC(N2C(=O)c3cc4c(cc3C2=O)OC2(CC4)CCN(CC3CCC4(CC3)CCN(c3ccc([C@@H]5c6ccc(O)cc6CC[C@@H]5c5ccccc5)cc3)CC4)CC2)C(=O)N1 (stereo partly drawn) [A43] | -8% |  | 26% |  | -2% | 7% | 62 nM | 41 nM |
| O=C1CCC(N2Cc3ccc4c(c3C2=O)OC2(CC4)CCN(C3CC4(CCN(c5ccc([C@@H]6c7ccc(O)cc7CC[C@@H]6c6ccccc6)cc5)CC4)C3)CC2)C(=O)N1 (stereo partly drawn) [A45] | -15% |  | -28% |  | -3% | -6% | 160 nM | 79 nM |
| O=C1CCC(N2Cc3c(ccc4c3OCC43CCN(C4CC5(CCC6(CCN(c7ccc([C@@H]8c9ccc(O)cc9CC[C@@H]8c8ccccc8)cc7)CC6)CC5)C4)CC3)C2=O)C(=O)N1 (stereo partly drawn) [B23] | 40% |  |  |  | 17% |  | 417 nM | 10.2 nM |

Other lines, results leading:

| Degradation rate (%) of ERα in MCF-7 cells (ERα [1]; 10nM compound) | IC50 (MCF-7 cells; [3]) | Degradation rate (%) of ERα in T-47D cells (ERα [2]; 10nM compound) | IC50 (T-47D cells; Table 2) | Degradation rate (%) of ERα in MCF-7 cells (ERα [1]; 1nM compound) | Degradation rate (%) of ERα in T-47D cells (ERα [2]; 1nM compound) | IC50 (MCF-7 cells; [4]) | IC50 (T-47D cells; Table 3) | Structure (SMILES) |
| --- | --- | --- | --- | --- | --- | --- | --- | --- |
|  |  |  |  |  |  | 320 nM and 214 nM | 3 nM | O=C1CCC(N2Cc3c(ccc4c3OCC43CCN(C4CC5(CCC6(CC5)CN(C5CCN(c7ccc([C@@H]8c9ccc(O)cc9CC[C@@H]8c8ccccc8)cc7)CC5)C6)C4)CC3)C2=O)C(=O)N1 (stereo partly drawn) [K16] |
|  |  | 19% |  |  | -3% | 24.3 nM | 8.52 nM | CC1CC(N2CCC3(CC2)COc2c3ccc3c2CN(C2CCC(=O)NC2=O)C3=O)CCN1C1CCN(c2ccc(C3c4ccc(O)cc4CCC3c3ccccc3)cc2)CC1 (stereo not drawn) [K22] |
|  | 20 nM | 56% | 1 nM |  | 17% |  |  | O=C1CCC(N2Cc3cc4c(cc3C2=O)OCC2(CCN(C3CC5(CCN(c6ccc([C@@H]7c8ccc(O)cc8CC[C@@H]7c7ccccc7)cc6)CC5)C3)CC2)O4)C(=O)N1 (stereo partly drawn) [M11] |
|  | 10 nM |  | 2 nM |  |  | 12 nM | 2 nM | O=C1CCC(N2Cc3cc4c(cc3C2=O)CCC2(CCN(C3CC5(CCN(c6ccc([C@@H]7c8ccc(O)cc8CC[C@@H]7c7ccccc7)cc6)CC5)C3)CC2)O4)C(=O)N1 (stereo partly drawn) [M12] |
|  | 70 nM | 27% | 1.6 nM |  | 13% |  |  | O=C1CCC(N2Cc3cc4c(cc3C2=O)CCC2(CN(C3CC5(CCN(c6ccc([C@@H]7c8ccc(O)cc8CC[C@@H]7c7ccccc7)cc6)CC5)C3)C2)O4)C(=O)N1 (stereo partly drawn) [M13] |
|  |  | -17% |  |  | -29% | 23 nM | 30 nM | O=C1CCC(N2C(=O)c3cc4c(cc3C2=O)OC2(CC4)CN(CC3CCC4(CC3)CN(c3ccc([C@@H]5c6ccc(O)cc6CC[C@@H]5c5ccccc5)cc3)C4)C2)C(=O)N1 (stereo partly drawn) [M14] |
| 13% |  | 67% |  | 2% | 56% |  | 1.72 nM | N#CC1(CN2CCC3(CC2)COc2c3ccc3c2CN(C2CCC(=O)NC2=O)C3=O)CCN(CC2CCN(c3ccc([C@@H]4c5ccc(O)cc5CC[C@@H]4c4ccccc4)cc3)CC2)CC1 (stereo partly drawn) [N7] |
